Assay results reported in US20150175599A1, “FAAH Inhibitors” (Ironwood Pharmaceuticals, Inc., priority 2010, published 2015).

Assay: Pharmacokinetic study, plasma level 2 hours after oral dosing in rats
Type: in vivo
Experimental: Pharmacokinetic studies were conducted to determine absorption and distribution profiles of the disclosed compounds which were orally administered to rats.
Compounds were formulated in a 1% DMA/99% Vitamin E TPGS vehicle. Prepared compounds were dosed via oral gavage (PO). Following the appropriate pretreatment time of 2 hours, rats were anesthetized with isoflurane gas. Blood was collected into tubes containing EDTA via retro-orbital eye bleed. Whole blood was spun in a micro-centrifuge at approximately 13,000 rpm for 5 minutes at room temperature. Separated plasma was subsequently aliquoted into eppendorf tubes. Samples were stored at −80° C. until prepped for analysis.
Plasma samples were thawed and the required amount of plasma for standards, blanks and dilutions were made. The dilutions were prepared before plating. Preparation of crash solution included cold acetonitrile+0.1% formic acid and 25 ng/mL of a FAAH inhibitor used as internal standard. solvent standards of the FAAH inhibitor being studied were preparation at 10, 30, 100, 300, 1000, 3000, 10000, 30000, 100000, and 300000 ng/mL in DMSO. Then a plasma standard curve was generated from the solvent standards (final concentrations of standards in plasma were: 0.1, 0.3, 1, 3, 10, 30, 100, 300, 1000, 3000 ng/mL). 50 μL of each plasma sample/dilution, standard, or blank was transferred into 96-well plates. To each well, 200 μL of cold crash solution was added. The plate was covered and gently vortexed. The plate was centrifuged at 3500 rpm, 4° C. for 10 min. 200 μL of each supernatant was transferred into new plates. The plates were dried under nitrogen in a TurboVap at 55° C. The sample in each well was re-suspended with 100 μL of 30% acetonitrile, covered and vortexed gently. The well solutions were analyzed by the LC/MS/MS conditions and specifications below.
HPLC column was a Clipeus C8, 2.1×30 mm, 5 μm, with Basic 8 guard column using 20 μL injections. Mobile phase used was mobile phase A: 0.1% Formic Acid in water and mobile phase B: 0.1% Formic Acid in 85:10:5 ACN:IPA:H2O. The flow rate for the run was 0.5 mL/min and the gradient for the 4 minute total run time was: 0.0 minutes

Compound | 2 hr plasma level-ng/mL (rat, 10 mg/kg PO, 2 hr)
COc1ccc2c(C(=O)C(=O)Nc3ccnc(OC)c3)c(C)n(Cc3ccc(Cl)cc3)c2c1 [Compound 48, 2-(1-(4-chlorobenzyl)-6-methoxy-2-methyl-1H-indol-3-yl)-N-(2-methoxypyridin-4-yl)-2-oxoacetamide] | C (C = between 100 nM and 1000 nM)
COc1cc(NC(=O)C(=O)c2c(C)n(Cc3ccc(Cl)cc3)c3cc(Cl)c(OC)cc23)ccn1 [Compound 55, 2-(6-chloro-1-(4-chlorobenzyl)-5-methoxy-2-methyl-1H-indol-3-yl)-N-(2-methoxypyridin-4-yl)-2-oxoacetamide] | C (C = between 100 nM and 1000 nM)
COc1cc(NC(=O)C(=O)c2c(C)n(Cc3ccc(Cl)cc3)c3ccc(OC(C)=O)cc23)ccn1 [Compound 1, 1-(4-chlorobenzyl)-3-(2-(2-methoxypyridin-4-ylamino)-2-oxoacetyl)-2-methyl-1H-indol-5-yl acetate] | A (A = Less than 10 nM)
COc1cc(NC(=O)C(=O)c2c(C)n(Cc3ncc(Cl)cc3Cl)c3cc(Cl)c(OC)cc23)ccn1 [Compound 70, 2-(6-chloro-1-((3,5-dichloropyridin-2-yl)methyl)-5-methoxy-2-methyl-1H-indol-3-yl)-N-(2-methoxypyridin-4-yl)-2-oxoacetamide] | C (C = between 100 nM and 1000 nM)
COc1cc(NC(=O)C(=O)c2c(C)n(Cc3ccc(Cl)cc3)c3ccc(NC(C)=O)cc23)ccn1 [Compound 22, 2-(5-acetamido-1-(4-chlorobenzyl)-2-methyl-1H-indol-3-yl)-N-(2-methoxypyridin-4-yl)-2-oxoacetamide] | B (B = between 10 nM and 100 nM)
COc1cc(NC(=O)C(=O)c2c(C)n(Cc3ccc(Cl)cc3)c3ccc(OC)nc23)ccn1 [Compound 36, 2-(1-(4-chlorobenzyl)-5-methoxy-2-methyl-1H-pyrrolo[3,2-b]pyridin-3-yl)-N-(2-methoxypyridin-4-yl)-2-oxoacetamide] | C (C = between 100 nM and 1000 nM)
COc1cc(NC(=O)C(=O)c2c(C)n(Cc3ccc(Cl)cn3)c3ccccc23)ccn1 [Compound 68, 2-(1-((5-chloropyridin-2-yl)methyl)-2-methyl-1H-indol-3-yl)-N-(2-methoxypyridin-4-yl)-2-oxoacetamide] | D (D = greater than 1000 nM)
COc1cc(NC(=O)C(=O)c2c(C)n(Cc3ccc(Cl)cc3)c3cccc(OC)c23)ccn1 [Compound 45, 2-(1-(4-chlorobenzyl)-4-methoxy-2-methyl-1H-indol-3-yl)-N-(2-methoxypyridin-4-yl)-2-oxoacetamide] | C (C = between 100 nM and 1000 nM)
COc1cc(NC(=O)C(=O)c2c(C)n(Cc3ccc(Cl)cn3)c3ccc(C)cc23)ccn1 [Compound 61, 2-(1-((5-chloropyridin-2-yl)methyl)-2,5-dimethyl-1H-indol-3-yl)-N-(2-methoxypyridin-4-yl)-2-oxoacetamide] | D (D = greater than 1000 nM)
COc1cnc2c(c1)c(C(=O)C(=O)Nc1ccnc(OC)c1)c(C)n2Cc1ncc(Cl)cc1Cl [Compound 29, 2-(1-((3,5-dichloropyridin-2-yl)methyl)-5-methoxy-2-methyl-1H-pyrrolo[2,3-b]pyridin-3-yl)-N-(2-methoxypyridin-4-yl)-2-oxoacetamide] | D (D = greater than 1000 nM)
COCc1ccc2c(c1)c(C(=O)C(=O)Nc1ccnc(OC)c1)c(C)n2Cc1ccc(Cl)cc1 [Compound 11, 2-(1-(4-chlorobenzyl)-5-(methoxymethyl)-2-methyl-1H-indol-3-yl)-N-(2-methoxypyridin-4-yl)-2-oxoacetamide] | C (C = between 100 nM and 1000 nM)
COc1ccc2c(c1)c(C(=O)C(=O)Nc1ccnc(OC)c1)c(C)n2Cc1ccccn1 [Compound 77, 2-(5-methoxy-2-methyl-1-(pyridin-2-ylmethyl)-1H-indol-3-yl)-N-(2-methoxypyridin-4-yl)-2-oxoacetamide] | C (C = between 100 nM and 1000 nM)
